# Experimental data as given in patent US7723523B2, “Tetrahydropyridothiophenes” (4SC AG, priority 2004, dated 2010).
# Key:
# [1] = tested on: RKO colon adenocarcinoma cells (RKOp27) arrested by expression of ectopic p27Kip1; experiment: Alamar Blue cell viability assay on RKOp27 cells arrested by Ponasterone A-induced p27Kip1 (cell cycle specific mode of action); format: cell-based; conditions: Homo sapiens, RKOp27, 72 h, cells arrested by p27Kip1 induced with 10 μM Ponasterone A, 72 hours incubation, read-out: IC50 RKO p27 arrested
# Protocol: To determine the cell cycle specific mode of action, subclones of RKO colon adenocarcinoma cells (RKOp27 or RKOp21 as described by Schmidt et al. in Oncogene 19, 2423-2429; 2000) are seeded into 96 well flat bottom plates at a density of 16000 cells per well in a volume of 50 μl per well in DMEM growth medium with 10% FCS containing 10 μM Ponasterone A. 24 hours after seeding 50 μl each of the compound dilutions in DMEM are added into each well of the 96 well plate. Each compound dilution is tested as quadruplicates. Wells containing untreated control cells are filled with 50 μl DMEM containing 1% DMSO. The cells are then incubated with the substances for 72 hours at 37° C. in a humidified atmosphere containing 5% carbon dioxide. To determine the viability of the cells, 10 μl of an Alamar Blue solution (Biosource) are added and the fluorescence is measured at an extinction of 544 nm and an emission of 590 nm. For the calculation of the cell viability the emission value from untreated cells is set as 100% viability and the emission rates of treated cells are set in relation to the values of untreated cells. Viabilities are expressed as % values. Viability is compared of proliferating cells grown in the absence of the inducer Ponasterone A, versus viability of cells arrested by the expression of ectopic p27Kip1 induced by Ponasterone A. The data of this experimental setting are summarized in table A (2nd column).
# [2] = tested on: RKO (RKOp27) human colon adenocarcinoma cells; experiment: Alamar Blue cell viability assay, anti-proliferative/cytotoxic activity on proliferating RKOp27 cells; format: cell-based; conditions: absence of Ponasterone A, 72 hours incubation, read-out: IC50 RKO p27 proliferating
# Protocol: The anti-proliferative/cytotoxic activity of the compounds described herein, can be tested on subclones of RKO (RKOp27) human colon adenocarcinoma cells (Schmidt et al., Oncogene 19, 2423-2429; 2000) using the Alamar Blue cell viability assay (described in O'Brien et al. Eur J Biochem 267, 5421-5426, 2000). The compounds are dissolved as 20 mM solutions in dimethylsulfoxide (DMSO) and subsequently diluted in semi-logarithmic steps. DMSO dilutions are further diluted 1:100 into Dulbecco's modified Eagle's medium (DMEM) containing 10% fetal calf serum to a final concentration twice as much as the final concentration in the test. RKO subclones are seeded into 96 well flat bottom plates at a density of 4000 cells per well in a volume of 50 μl per well. 24 hours after seeding 50 μl each of the compound dilutions in DMEM are added into each well of the 96 well plate. Each compound dilution is tested as quadruplicates. Wells containing untreated control cells are filled with 50 μl DMEM containing 1% DMSO. The cells are then incubated with the substances for 72 hours at 37° C. in a humidified atmosphere containing 5% carbon dioxide. To determine the viability of the cells, 10 μl of an Alamar Blue solution (Biosource) are added and the fluorescence is measured at an extinction of 544 nm and an emission of 590 nm. For the calculation of the cell viability the emission value from untreated cells is set as 100% viability and the emission rates of treated cells are set in relation to the values of untreated cells. Viabilities are expressed as % values.
# The corresponding IC50 values of the compounds for anti-proliferative/cytotoxic activity are determined from the concentration-effect curves.
# Representative IC50 values for anti-proliferation/cytotoxicity determined in the aforementioned assay are described in the table A (1st column), in which the numbers of the compound correspond to the numbers of the examples.
Structure (SMILES),IC50 [1],IC50 [2]
"COCCOC(=O)N1CCc2c(sc(NC(=O)/C=C/c3ccccc3OC)c2C#N)C1 [Example 137, 3-Cyano-2-[(E)-3-(2-methoxy-phenyl)-allanoylamino]-4,7-dihydro-5H-thieno[2,3-c]pyridine-6-carboxylic acid 2-methoxy-ethyl ester]",≥ 100 µM,≤ 2 µM
"CCOC(=O)N1CCc2c(sc(NC(=O)/C=C/c3cc(OC)ccc3OC)c2C#N)C1 [Example 102, 3-Cyano-2-[(E)-3-(2,5-dimethoxy-phenyl)-allanoylamino]-4,7-dihydro-5H-thieno[2,3-c]pyridine-6-carboxylic acid ethyl ester]",≥ 100 µM,≤ 2 µM
"CCNC(=O)N1CCc2c(sc(NC(=O)/C=C/c3ccccc3)c2C#N)C1 [Example 37, 3-Cyano-2-((E)-phenyl-allanoylamino)-4,7-dihydro-5H-thieno[2,3-c]pyridine-6-carboxylic acid ethylamide]",> 100 µM,≤ 2 µM
"CC1(C)OCC(COC(=O)N2CCc3c(sc(NC(=O)/C=C/c4ccccc4)c3C#N)C2)O1 (stereo not drawn) [Example 127, 3-Cyano-2-((E)-3-phenyl-allanoylamino)-4,7-dihydro-5H-thieno[2,3-c]pyridine-6-carboxylic acid 2,2-dimethyl-[1,3]dioxolan-4-ylmethyl ester]",≥ 100 µM,≤ 2 µM
"CCNC(=O)N1CCc2c(sc(NC(=O)/C=C/c3cccnc3)c2C#N)C1 [Example 38, 3-Cyano-2-((E)-3-pyridin-3-yl-allanoylamino)-4,7-dihydro-5H-thieno[2,3-c]pyridine-6-carboxylic acid ethylamide]",> 100 µM,≤ 2 µM
"CCOC(=O)N1CCc2c(sc(NC(=O)/C=C/c3ccccc3OC)c2C#N)C1 [Example 24, 3-Cyano-2-[(E)-3-(2-methoxy-phenyl)-allanoylamino]-4,7-dihydro-5H-thieno[2,3-c]pyridine-6-carboxylic acid ethyl ester]",> 100 µM,≤ 2 µM
"CCOC(=O)N1CCc2c(sc(NC(=O)/C=C/c3ccc(F)cc3C)c2C#N)C1 [Example 89, 3-Cyano-2-[(E)-3-(4-fluoro-2-methyl-phenyl)-allanoylamino]-4,7-dihydro-5H-thieno[2,3-c]pyridine-6-carboxylic acid ethyl ester]",≥ 100 µM,≤ 2 µM
"CCOC(=O)N1CCc2c(sc(NC(=O)/C=C/c3sccc3Cl)c2C#N)C1 [Example 64, 2-[(E)-3-(3-Chloro-thiophen-2-yl)-allanoylamino]-cyano-4,7-dihydro-5H-thieno[2,3-c]pyridine-6-carboxylic acid ethyl ester]",≥ 100 µM,≤ 2 µM
"CCOC(=O)N1CCc2c(sc(NC(=O)/C=C/c3ccsc3)c2C#N)C1 [Example 9, 3-Cyano-2-((E)-3-thiophen-3-yl-allanoylamino)-4,7-dihydro-5H-thieno[2,3-c]pyridine-6-carboxylic acid ethyl ester]",> 100 µM,≤ 2 µM
"CCOC(=O)N1CCc2c(sc(NC(=O)/C=C/c3cccc(F)c3)c2C#N)C1 [Example 21, 3-Cyano-2-[(E)-3-(3-fluoro-phenyl)-allanoylamino]-4,7-dihydro-5H-thieno[2,3-c]pyridine-6-carboxylic acid ethyl ester]",> 100 µM,≤ 2 µM
"COc1cccc(OC(=O)N2CCc3c(sc(NC(=O)/C=C/c4cccnc4)c3C#N)C2)c1 [Example 45, 3-Cyano-2-((E)-3-pyridin-3-yl-allanoylamino)-4,7-dihydro-5H-thieno[2,3-c]pyridine-6-carboxylic acid 3-methoxy-phenyl ester]",> 100 µM,≤ 2 µM
"CCOC(=O)N1CCc2c(sc(NC(=O)/C=C/c3cc4ccccc4o3)c2C#N)C1 [Example 84, 2-[(E)-3-Benzofuran-2-yl-allanoylamino]-3-cyano-4,7-dihydro-5H-thieno[2,3-c]pyridine-6-carboxylic acid ethyl ester]",≥ 50 µM,≤ 0.5 µM

# Now from value to compound, other results behind:
IC50 [1],Structure (SMILES),IC50 [2]
≥ 50 µM,"N#Cc1c(NC(=O)/C=C/c2cccnc2)sc2c1CCN(C(=O)OC1CCCCC1)C2 [Example 168, 3-Cyano-2-((E)-3-pyridin-3-yl-allanoylamino)-4,7-dihydro-5H-thieno[2,3-c]pyridine-6-carboxylic acid cyclohexyl ester]",≤ 0.5 µM
≥ 100 µM,"CCOc1ccccc1/C=C/C(=O)Nc1sc2c(c1C#N)CCN(C(=O)CCc1ccccc1)C2 [Example 221, (E)-N-[3-Cyano-6-(3-phenyl-propanoyl)-4,5,6,7-tetrahydro-thieno[2,3-c]pyridin-2-yl]-3-(2-ethoxy-phenyl)-acrylamide]",≤ 2 µM
≥ 100 µM,"COCCOC(=O)N1CCc2c(sc(NC(=O)/C=C/c3ccco3)c2C#N)C1 [Example 240, 3-Cyano-2-((E)-3-furan-2-yl-allanoylamino)-4,7-dihydro-5H-thieno[2,3-c]pyridine-6-carboxylic acid 2-methoxy-ethyl ester]",≤ 2 µM
≥ 100 µM,"CCOc1ccccc1/C=C/C(=O)Nc1sc2c(c1C#N)CCN(C(=O)CCOC)C2 [Example 216, (E)-N-[3-Cyano-6-(3-methoxy-propanoyl)-4,5,6,7-tetrahydro-thieno[2,3-c]pyridin-2-yl]-3-(2-ethoxy-phenyl)-acrylamide]",≤ 2 µM
≥ 100 µM,"COCCC(=O)N1CCc2c(sc(NC(=O)/C=C/c3ccccc3)c2C#N)C1 [Example 177, (E)-N-[3-Cyano-6-(3-methoxy-propanoyl)-4,5,6,7-tetrahydro-thieno[2,3-c]pyridin-2-yl]-3-phenyl-acrylamide]",≤ 2 µM
≥ 50 µM,"CCCOC(=O)N1CCc2c(sc(NC(=O)/C=C/c3cccnc3)c2C#N)C1 [Example 145, 3-Cyano-2-((E)-3-pyridin-3-yl-allanoylamino)-4,7-dihydro-5H-thieno[2,3-c]pyridine-6-carboxylic acid propyl ester]",≤ 0.5 µM
≥ 100 µM,"COc1cccc(CCOC(=O)N2CCc3c(sc(NC(=O)/C=C/c4cccnc4)c3C#N)C2)c1 [Example 152, 3-Cyano-2-((E)-3-pyridin-3-yl-allanoylamino)-4,7-dihydro-5H-thieno[2,3-c]pyridine-6-carboxylic acid 2-(3-methoxy-phenyl)-ethyl ester]",≤ 2 µM
≥ 100 µM,"N#Cc1c(NC(=O)/C=C/c2ccccc2Cl)sc2c1CCN(C(=O)Cc1ccccn1)C2 [Example 212, (E)-3-(2-Chloro-phenyl)-N-[3-cyano-6-(2-pyridin-2-yl-ethanoyl)-4,5,6,7-tetrahydro-thieno[2,3-c]pyridin-2-yl]-acrylamide]",≤ 2 µM
≥ 100 µM,"N#Cc1c(NC(=O)/C=C/c2ccccc2)sc2c1CCN(C(=O)CCCO)C2 [Example 192, (E)-N-[3-Cyano-6-(4-hydroxy-butanoyl)-4,5,6,7-tetrahydro-thieno[2,3-c]pyridin-2-yl]-3-phenyl-acrylamide]",≤ 2 µM
≥ 100 µM,"N#Cc1c(NC(=O)/C=C/c2cccnc2)sc2c1CCN(C(=O)OCCc1cccnc1)C2 [Example 159, 3-Cyano-2-((E)-3-pyridin-3-yl-allanoylamino)-4,7-dihydro-5H-thieno[2,3-c]pyridine-6-carboxylic acid 2-pyridin-3-yl-ethyl ester]",≤ 2 µM
≥ 100 µM,"COc1ccccc1/C=C/C(=O)Nc1sc2c(c1C#N)CCN(C(=O)OCc1ccccn1)C2 [Example 138, 3-Cyano-2-[(E)-3-(2-methoxy-phenyl)-allanoylamino]-4,7-dihydro-5H-thieno[2,3-c]pyridine-6-carboxylic acid pyridin-2-ylmethyl ester]",≤ 2 µM
≥ 50 µM,"CCOc1ccccc1/C=C/C(=O)Nc1sc2c(c1C#N)CCN(C(=O)CCc1ccccn1)C2 [Example 222, (E)-N-[3-Cyano-6-(3-pyridin-2-yl-propanoyl)-4,5,6,7-tetrahydro-thieno[2,3-c]pyridin-2-yl]-3-(2-ethoxy-phenyl)-acrylamide]",≤ 0.5 µM
